Results reported in ChEMBL document CHEMBL5537209, “Teleocidin B-4, a PKC Activator, Upregulates Hypoxia-Inducible Factor 1 (HIF-1) Activity by Promoting the Accumulation of HIF-1α Protein via the PKCα/mTORC Signaling Pathway” (J Nat Prod, 2024).
Active and inactive are the calls of the source. No cut-off for these calls is given here.

Key:
Assay type in all cases: cell-based
HeLa S3 [1] = assay: Activation of HIF-1 transcriptional activity in human HeLa S3 cells transfected with 5xHRE-Luc/UCHL1 reporter and PKCalpha siRNA assessed as upregulation of HIF-1alpha protein level at 10 ng/ml incubated for 12 hrs under hypoxia condition by Western blotting assay
HeLa S3 [2] = assay: Activation of PKCdelta/mTORC pathway in human HeLa S3 cells transfected with PKCdelta siRNA assessed as accumulation of phosphorylated ribosomal protein S6 at 10 ng/ml incubated for 12 hrs under hypoxia condition by Western blotting analysis; conditions: filed as activator
HeLa S3 [3] = assay: Activation of HIF-1 in human HeLa S3 cells assessed as increase in VEGF mRNA level at 10 ng/ml preincubated for 1 hr under normoxic condition followed by 6 hrs incubation under hypoxic condition by real-time quantitative PCR analysis; conditions: filed as activator, time 7.0 hrs
HeLa S3 [4] = assay: Activation of PKCalpha/mTORC pathway in human HeLa S3 cells assessed as accumulation of phosphorylated ribosomal protein S6 at 10 ng/ml incubated for 12 hrs under hypoxia condition by Western blotting analysis; conditions: filed as activator
HeLa [5] = assay: Activation of HIF-1 transcriptional activity in human HeLa cells transfected with 5xHRE-Luc/UCHL1 reporter and PKCdelta siRNA at 10 ng/ml incubated for 24 hrs under hypoxia condition by luciferase reporter assay; conditions: filed as activator
HeLa [6] = assay: Activation of HIF-1 transcriptional activity in human HeLa cells transfected with 5xHRE-Luc/UCHL1 reporter and PKCalpha siRNA at 10 ng/ml incubated for 24 hrs under hypoxia condition by luciferase reporter assay
HeLa [7] = assay: Activation of HIF-1 transcriptional activity in human HeLa cells transfected with 5xHRE-Luc/UCHL1 reporter at 0.1 to 1000 ng/ml preincubated for 1 hr under normoxic condition followed by 24 hrs incubation under hypoxic condition by luciferase reporter assay; conditions: filed as activator, dose 0.1-1000 ng/ml, time 25.0 hrs
HeLa S3 [8] = assay: Activation of HIF-1 in human HeLa S3 cells assessed as increase in HIF-1alpha protein level at 10 ng/ml pretreated with MG132 for 1 hr followed by 12 hrs incubation under normoxic condition by Western blotting analysis; conditions: filed as activator
HeLa [9] = assay: Activation of HIF-1 transcriptional activity in human HeLa cells transfected with 5xHRE-Luc/UCHL1 reporter at 10 ng/ml pretreated with Go6976 for 1 hr followed by 24 hrs incubation under hypoxic condition by luciferase reporter assay
HeLa S3 [10] = assay: Activation of PKCalpha/mTORC pathway in human HeLa S3 cells transfected with PKCalpha siRNA assessed as accumulation of phosphorylated ribosomal protein S6 at 10 ng/ml incubated for 12 hrs under hypoxia condition by Western blotting analysis
HeLa S3 [11] = assay: Activation of HIF-1 in human HeLa S3 cells assessed as increase in HIF-1alpha protein level at 10 ng/ml preincubated for 1 hr under normoxic condition followed by 12 hrs incubation under hypoxic condition by Western blotting analysis; conditions: filed as activator, time 13.0 hrs
HeLa [12] = assay: Activation of HIF-1 transcriptional activity in human HeLa cells transfected with 5xHRE-Luc/UCHL1 reporter at 0.1 to 10 uM preincubated for 1 hr under normoxic condition followed by 24 hrs incubation under hypoxic condition by luciferase reporter assay; conditions: filed as activator, dose 0.1-10 µM, time 25.0 hrs
HeLa [13] = assay: Activation of HIF-1 transcriptional activity in human HeLa cells transfected with 5xHRE-Luc/UCHL1 reporter at 10 ng/ml pretreated with torin1 for 1 hr followed by 24 hrs incubation under hypoxia condition by luciferase reporter assay
HeLa S3 [14] = assay: Activation of HIF-1 in human HeLa S3 cells assessed as increase in VEGF mRNA level at 0.1 to 10 ng/ml preincubated for 1 hr under normoxic condition followed by 6 hrs incubation under hypoxic condition by real-time quantitative PCR analysis; conditions: filed as activator, dose 0.1-10 ng/ml, time 7.0 hrs
HeLa S3 [15] = assay: Activation of HIF-1 in human HeLa S3 cells assessed as increase in HIF-1alpha protein level at 10 ng/ml pretreated with Go6983 for 1 hr followed by 12 hrs incubation under hypoxic condition by Western blotting analysis
HeLa S3 [16] = assay: Activation of HIF-1 in human HeLa S3 cells assessed as increase in VEGF mRNA level at 10 ng/ml pretreated with Go6983 for 1 hr followed by 6 hrs incubation under hypoxic condition by real-time quantitative PCR analysis
HeLa [17] = assay: Activation of HIF-1 transcriptional activity in human HeLa cells transfected with 5xHRE-Luc/UCHL1 reporter at 0.1 to 100 ng/ml pretreated with Go6983 for 1 hr followed by 24 hrs incubation under hypoxic condition by luciferase reporter assay; conditions: dose 0.1-100 ng/ml
HeLa S3 [18] = assay: Activation of HIF-1 in human HeLa S3 cells assessed as increase in HIF-1alpha protein level at 0.1 to 10 ng/ml preincubated for 1 hr under normoxic condition followed by 12 hrs incubation under hypoxic condition by Western blotting analysis; conditions: filed as activator, dose 0.1-10 ng/ml, time 13.0 hrs

| Structure (SMILES) | Activity (HeLa S3 [1]) | Activity (HeLa S3 [2]) | Activity (HeLa S3 [3]) | Activity (HeLa S3 [4]) | Activity (HeLa [5]) | Activity (HeLa [6]) | Activity (HeLa [7]) | Activity (HeLa S3 [8]) | Activity (HeLa [9]) | Activity (HeLa S3 [10]) | Activity (HeLa S3 [11]) | Activity (HeLa [12]) | Activity (HeLa [13]) | Activity (HeLa S3 [14]) | Activity (HeLa S3 [15]) | Activity (HeLa S3 [16]) | Activity (HeLa [17]) | Activity (HeLa S3 [18]) |
| --- | --- | --- | --- | --- | --- | --- | --- | --- | --- | --- | --- | --- | --- | --- | --- | --- | --- | --- |
| CCCCCCCCCCCCCC(=O)O[C@@H]1[C@@H](C)[C@@]2(O)[C@@H](C=C(CO)C[C@]3(O)C(=O)C(C)=C[C@@H]23)[C@@H]2C(C)(C)[C@]12OC(C)=O | inactive | Active | Active | Active | Active | inactive | Active | Active | inactive | inactive | Active |  |  |  |  |  |  |  |
| C[C@H]1[C@@H]2C[C@@]3(O[C@H](CCC3(C)C)CC(=O)O[C@@H](CO)CC(=O)O2)O[C@@H]1CCCCc1cccc(O)c1 |  |  |  |  |  |  |  |  |  |  |  | Active |  |  |  |  |  |  |
| C=C[C@@]1(C)CC[C@](C)(C(C)C)c2cc3c4c(c[nH]c4c21)C[C@@H](CO)NC(=O)[C@H](C(C)C)N3C | inactive | Active |  | Active | Active | inactive | Active | Active | inactive | inactive |  |  | inactive | Active | inactive | inactive | inactive | Active |
